Reference: the Kinase Knowledgebase extract (Sharma et al. 2016)

Each molecule was assayed against MAPK14 (UniProt Q16539) (assay: Inhibition of MAPK14 Kinase Activity).
Chain of MAPK14 (Q16539 whole entry, looked up): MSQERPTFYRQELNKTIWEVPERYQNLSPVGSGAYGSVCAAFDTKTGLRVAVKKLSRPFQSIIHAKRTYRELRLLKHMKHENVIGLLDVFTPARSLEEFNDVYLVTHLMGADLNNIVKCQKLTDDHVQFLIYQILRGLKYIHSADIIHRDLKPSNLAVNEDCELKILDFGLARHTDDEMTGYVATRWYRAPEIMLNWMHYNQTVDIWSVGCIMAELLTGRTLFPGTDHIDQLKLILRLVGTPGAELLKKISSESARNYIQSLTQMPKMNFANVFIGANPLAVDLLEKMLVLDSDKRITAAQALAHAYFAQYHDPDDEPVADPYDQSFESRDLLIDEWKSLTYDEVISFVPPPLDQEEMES

| IC50 [µM] | Structure (SMILES) |
| --- | --- |
| ≤ 5 | CC(C)S(=O)(=O)n1c(N)nc2ccc(-c3c(-c4ccccc4)ncn3Cc3ccccn3)cc21 |
| ≤ 5 | CC(C)S(=O)(=O)n1c(N)nc2ccc(-c3nc(-c4ccc(Cl)cc4)[nH]c3-c3ccccc3)cc21 |
| ≤ 5 | CC(C)S(=O)(=O)n1c(N)nc2ccc(-c3nc(-c4cccc(OCCN5CCCC5)c4)[nH]c3-c3ccccc3)cc21 |
| ≤ 5 | CC(C)S(=O)(=O)n1c(N)nc2ccc(-c3c(-c4ccccc4)ncn3C3CCOCC3)cc21 |
| ≤ 5 | CC(C)S(=O)(=O)n1c(N)nc2ccc(-c3c(-c4ccc(F)cc4)ncn3C3CC3)cc21 |
| ≤ 5 | CC(C)S(=O)(=O)n1c(N)nc2ccc(-c3nc(-c4cccs4)[nH]c3-c3ccc(C(F)(F)F)cc3)cc21 |
| ≤ 5 | CCc1nc(-c2ccc3nc(N)n(S(=O)(=O)C(C)C)c3c2)c(-c2ccc(F)cc2)[nH]1 |
| ≤ 5 | CC(C)S(=O)(=O)n1c(N)nc2ccc(-c3nc(C4CC4)[nH]c3-c3ccc(F)cc3)cc21 |
| ≤ 5 | CC(C)S(=O)(=O)n1c(N)nc2ccc(-c3nc(C4CCNCC4)[nH]c3-c3ccc(F)cc3)cc21 |
| ≤ 5 | CC(C)S(=O)(=O)n1c(N)nc2ccc(-c3nc(-c4c(F)cccc4C(F)(F)F)[nH]c3-c3ccccc3)cc21 |
| ≤ 5 | CC(C)S(=O)(=O)n1c(N)nc2ccc(-c3nc[nH]c3-c3cccc(C(F)(F)F)c3)cc21 |
| ≤ 5 | Cc1cc(-c2ccc3nc(N)n(S(=O)(=O)C(C)C)c3c2)n(-c2ccccc2)n1 |
| ≤ 5 | C#Cc1nc(-c2ccccc2F)c(-c2ccc3nc(N)n(S(=O)(=O)C(C)C)c3c2)n1C1CC1 |
| ≤ 5 | CC(C)S(=O)(=O)n1c(N)nc2ccc(-c3[nH]n(-c4ccccc4)c(=O)c3-c3ccc(F)cc3)cc21 |
| ≤ 5 | Cc1ccsc1-c1nc(-c2ccc3nc(N)n(S(=O)(=O)C(C)C)c3c2)c(-c2ccccc2)[nH]1 |
| ≤ 5 | Nc1nc2ccc(-c3c(-c4ccccc4)ncn3C3CCCCC3)cc2s1 |
| ≤ 5 | CC(C)S(=O)(=O)n1c(N)nc2ccc(-c3nc(-c4c(F)cccc4Cl)[nH]c3-c3ccc(F)cc3)cc21 |
| ≤ 5 | Nc1nc2ccc(-c3nc[nH]c3-c3ccccc3)cc2[nH]1 |
| ≤ 5 | CC(C)S(=O)(=O)n1c(N)nc2ccc(-c3c(C#N)cnn3-c3ccccc3)cc21 |
| ≤ 5 | CC(C)S(=O)(=O)n1c(N)nc2ccc(-c3sc(-c4ccccc4)nc3-c3ccccc3)cc21 |

| IC50 [µM] | Structure (SMILES) |
| --- | --- |
| ≤ 5 | CC(C)S(=O)(=O)n1c(N)nc2ccc(-c3c(-c4ccccc4)ncn3Cc3ccncc3)cc21 |
| ≤ 5 | CC(C)S(=O)(=O)n1c(N)nc2ccc(-c3nc[nH]c3-c3ccccc3F)cc21 |
| ≤ 5 | CC(C)S(=O)(=O)n1c(N)nc2ccc(-c3nc(-c4ccc(OCCN5CCCCC5)cc4)[nH]c3-c3ccccc3)cc21 |
| ≤ 5 | CC(C)S(=O)(=O)n1c(N)nc2ccc(-c3nc(-c4nccs4)[nH]c3-c3ccccc3)cc21 |
| ≤ 5 | COc1ccc(Cn2cnc(-c3ccccc3)c2-c2ccc3nc(N)n(S(=O)(=O)C(C)C)c3c2)cc1 |
| ≤ 5 | Cc1nc(-c2ccc3nc(N)n(S(=O)(=O)C(C)C)c3c2)c(-c2ccccc2)[nH]1 |
| ≤ 5 | CN(C)S(=O)(=O)n1c(N)nc2ccc(-c3nc(-c4c(F)cccc4F)[nH]c3-c3ccccc3)cc21 |
| ≤ 5 | CC(C)S(=O)(=O)n1c(N)nc2ccc(-c3nc(C4CCN(CCC(F)(F)F)CC4)[nH]c3-c3ccccc3)cc21 |
| ≤ 5 | CC(C)S(=O)(=O)n1c(N)nc2ccc(-c3nc(CNCCN4CCCCC4)[nH]c3-c3ccccc3)cc21 |
| ≤ 5 | CC(C)S(=O)(=O)n1c(N)nc2ccc(-c3nc(CN4CCOCC4)[nH]c3-c3ccccc3)cc21 |
| ≤ 5 | CCN(CC)CCOc1cccc(-c2nc(-c3ccc4nc(N)n(S(=O)(=O)C(C)C)c4c3)c(-c3ccccc3)[nH]2)c1 |
| ≤ 5 | CC(=O)Nc1ccc(-c2nc(-c3ccc4nc(N)n(S(=O)(=O)C(C)C)c4c3)c(-c3ccccc3)[nH]2)cc1 |
| ≤ 5 | CC(C)S(=O)(=O)n1c(N)nc2ccc(-c3nc(-c4ccc(OCCN5CCCC5)c(F)c4)[nH]c3-c3ccccc3)cc21 |
| ≤ 5 | Cc1cccn2c(-c3ccc4nc(N)n(S(=O)(=O)C(C)C)c4c3)c(-c3ccccc3)nc12 |
| ≤ 5 | CC(C)S(=O)(=O)n1c(N)nc2ccc(-c3nc(-c4c(Cl)cccc4Cl)[nH]c3-c3ccccc3)cc21 |
| ≤ 5 | CC(C)S(=O)(=O)n1c(N)nc2ccc(-c3c(-c4ccccc4F)nc(Br)n3C3CC3)cc21 |
| ≤ 5 | CC(C)S(=O)(=O)n1c(N)nc2ccc(-c3c(-c4ccccc4F)nc(-c4ccc(Cl)cc4)n3C3CC3)cc21 |
| ≤ 5 | CC(C)S(=O)(=O)n1c(N)nc2ccc(-c3[nH]n(-c4ccc([N+](=O)[O-])cc4)c(=O)c3-c3ccc(F)cc3)cc21 |
| ≤ 5 | CC(C)S(=O)(=O)n1c(N)nc2ccc(-c3c(-c4ccccc4)nc4n3CCCC4)cc21 |
| ≤ 5 | CC(C)S(=O)(=O)n1c(N)nc2ccc(-c3c(-c4ccccc4)ncn3[C@@H]3CCCC[C@H]3O)cc21 |

| IC50 [µM] | Structure (SMILES) |
| --- | --- |
| ≤ 5 | CC(C)S(=O)(=O)n1c(N)nc2ccc(-c3nc(-c4cccc(C(F)(F)F)c4)[nH]c3-c3ccccc3)cc21 |
| ≤ 5 | CCc1nc(-c2ccccc2F)c(-c2ccc3nc(N)n(S(=O)(=O)C(C)C)c3c2)n1C1CC1 |
| ≤ 5 | CC(C)S(=O)(=O)n1c(N)nc2ccc(-c3c(-c4ccccc4)ncn3[C@H](C)CO)cc21 |
| ≤ 5 | CC(C)S(=O)(=O)n1c(N)nc2ccc(-c3nc(-c4cccs4)n(C)c3-c3ccccc3)cc21 |
| ≤ 5 | CC(C)S(=O)(=O)n1c(N)nc2ccc(-c3c(-c4ccccc4)ncn3C3CCC(=O)CC3)cc21 |
| ≤ 5 | CC(C)S(=O)(=O)n1c(CCN)nc2ccc(-c3nc(-c4c(F)cccc4F)[nH]c3-c3ccccc3)cc21 |
| ≤ 5 | CC(C)CN1CCC(c2nc(-c3ccc4nc(N)n(S(=O)(=O)C(C)C)c4c3)c(-c3ccc(F)cc3)[nH]2)CC1 |
| ≤ 5 | CC(C)S(=O)(=O)n1c(N)nc2ccc(-c3nc(-c4ccccc4SC(F)(F)F)[nH]c3-c3ccccc3)cc21 |
| ≤ 5 | CC(C)S(=O)(=O)n1c(N)nc2ccc(-c3c(-c4ccccc4)ncn3C3CCCCC3)cc21 |
| ≤ 5 | CNc1ccc(-c2nc(-c3ccc4nc(N)n(S(=O)(=O)C(C)C)c4c3)c(-c3ccccc3)[nH]2)c(F)c1 |
| ≤ 5 | CC(C)S(=O)(=O)n1c(N)nc2ccc(-c3nc[nH]c3-c3ccccc3)cc21 |
| ≤ 5 | CC(C)S(=O)(=O)n1c(N)nc2ccc(-c3nc(-c4ccc(F)cc4F)[nH]c3-c3cc(F)cc(F)c3)cc21 |
| ≤ 5 | CC(C)S(=O)(=O)n1c(N)nc2ccc(-c3c(-c4ccccc4)ncn3C3CCNCC3)cc21 |
| ≤ 5 | CC(C)S(=O)(=O)n1c(N)nc2ccc(-c3nc(C4CCN(C(=O)OC(C)(C)C)CC4)[nH]c3-c3ccccc3)cc21 |
| ≤ 5 | CC(C)S(=O)(=O)n1c(N)nc2ccc(-c3[nH]n(-c4ccc(C(F)(F)F)cc4)c(=O)c3-c3ccccc3)cc21 |
| ≤ 5 | Cc1ccccc1-c1[nH]c(-c2ccc(F)cc2)nc1-c1ccc2nc(N)n(S(=O)(=O)C(C)C)c2c1 |
| ≤ 5 | CC(C)S(=O)(=O)n1c(N)nc2ccc(-c3c(-c4ccccc4)ncn3C3CCC(NC(=O)OC(C)(C)C)CC3)cc21 (stereo not given) |
| ≤ 5 | CC(C)S(=O)(=O)n1c(N)nc2ccc(-c3nc(-c4ccc5c(c4)OCO5)[nH]c3-c3ccccc3)cc21 |
| ≤ 5 | CC(C)S(=O)(=O)n1c(N)nc2ccc(-c3[nH]n(-c4ccccc4)c(=O)c3-c3ccccc3)cc21 |
| ≤ 5 | COc1ccc(-c2nc(-c3ccc4nc(N)n(S(=O)(=O)C(C)C)c4c3)c(-c3ccccc3)[nH]2)cc1 |
